# Measured values taken from ChEMBL document CHEMBL1201862, “PubChem BioAssay data set” (2004).
# The source made the active and inactive calls.
# Experiments:
# [1] = molecular target: Vascular endothelial growth factor receptor 3 (Homo sapiens, UniProt P35916); type: functional;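 note: value from a kinome-wide profiling panel, with FLT4 as the panel member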
# [2] = molecular target: Rho-associated protein kinase 1 (Homo sapiens, UniProt Q13464); type: functional;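 note: measured within a broad kinome-wide panel profiling many kinases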
# [3] = molecular target: Cyclin-dependent kinase 19 (Homo sapiens, UniProt Q9BWU1); assay: Navigating the Kinome. Panel member name: CDC2L6; type: functional
# [4] = molecular target: Serine/threonine-protein kinase pim-3 (Homo sapiens, UniProt Q86V86); type: functional;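 note: value obtained as one member of a broad kinase panel profiling effort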
# [5] = molecular target: Serine/threonine-protein kinase PLK1 (Homo sapiens, UniProt P53350); type: functional;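 note: PLK1 measured as one member of a kinome-wide profiling panel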
# [6] = molecular target: 3-phosphoinositide-dependent protein kinase 1 (Homo sapiens, UniProt O15530); type: functional;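 note: value comes from the Navigating the Kinome panel, PDPK1 member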
# [7] = molecular target: Homeodomain-interacting protein kinase 2 (Homo sapiens, UniProt Q9H2X6); type: functional;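 note: measured within a kinome-wide kinase profiling panel, HIPK2 being one panel member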
# [8] = molecular target: Mast/stem cell growth factor receptor Kit (Homo sapiens, UniProt P10721); type: functional;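 note: KIT entry within a kinase panel assay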
# Focal adhesion kinase 1 = Focal adhesion kinase 1 (Homo sapiens, UniProt Q05397); type: functional;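 note: measured as one member of a kinome panel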
# [9] = molecular target: Tyrosine-protein kinase Lyn (Homo sapiens, UniProt P07948); type: functional;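 note: lyn as one member of a kinase panel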
# [10] = molecular target: DNA dC->dU-editing enzyme APOBEC-3A (Homo sapiens, UniProt P31941); assay: A3A deaminase inhibition for selectivity – biochemical, dose response (AID 504722); type: functional
# Aminopeptidase N = molecular target: T1, Aminopeptidase N (Plasmodium falciparum FcB1/Columbia, UniProt O96935); assay: malaria alanyl aminopeptidase activity blockers – biochemical, fluorogenic H-Leu-NHMec substrate, 1536-well (AID 1445); design: species or system Plasmodium falciparum 3D7, 3D7
# T1 sequence (O96935 whole entry): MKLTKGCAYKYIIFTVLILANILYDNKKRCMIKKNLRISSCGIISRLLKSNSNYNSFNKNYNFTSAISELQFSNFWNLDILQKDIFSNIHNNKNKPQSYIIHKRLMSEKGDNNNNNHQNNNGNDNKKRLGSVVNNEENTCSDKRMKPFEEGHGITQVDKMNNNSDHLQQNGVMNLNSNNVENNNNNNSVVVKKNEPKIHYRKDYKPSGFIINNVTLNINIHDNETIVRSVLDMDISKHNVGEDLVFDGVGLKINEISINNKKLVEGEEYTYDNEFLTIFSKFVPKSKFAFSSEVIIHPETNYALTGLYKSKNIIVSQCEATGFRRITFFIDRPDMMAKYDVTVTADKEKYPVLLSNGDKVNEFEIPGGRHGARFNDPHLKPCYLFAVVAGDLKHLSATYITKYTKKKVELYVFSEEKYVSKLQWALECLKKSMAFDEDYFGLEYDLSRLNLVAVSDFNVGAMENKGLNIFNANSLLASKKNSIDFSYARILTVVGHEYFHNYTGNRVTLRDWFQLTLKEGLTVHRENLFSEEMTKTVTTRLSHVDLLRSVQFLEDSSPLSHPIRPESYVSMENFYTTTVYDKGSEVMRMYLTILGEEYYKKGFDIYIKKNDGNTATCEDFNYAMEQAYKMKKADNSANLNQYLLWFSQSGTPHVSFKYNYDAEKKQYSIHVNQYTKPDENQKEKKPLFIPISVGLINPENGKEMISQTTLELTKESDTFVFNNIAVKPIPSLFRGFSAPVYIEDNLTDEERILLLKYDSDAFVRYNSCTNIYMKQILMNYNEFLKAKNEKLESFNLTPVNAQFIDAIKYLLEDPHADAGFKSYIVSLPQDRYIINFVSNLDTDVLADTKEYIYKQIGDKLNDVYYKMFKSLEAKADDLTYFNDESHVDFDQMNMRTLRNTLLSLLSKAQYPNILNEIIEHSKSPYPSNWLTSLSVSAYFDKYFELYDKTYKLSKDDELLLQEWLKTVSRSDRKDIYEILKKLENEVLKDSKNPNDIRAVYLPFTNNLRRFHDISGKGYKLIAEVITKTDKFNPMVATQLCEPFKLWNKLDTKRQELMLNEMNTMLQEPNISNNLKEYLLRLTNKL
# [11] = molecular target: T2, Sentrin-specific protease 7 (Homo sapiens, UniProt Q9BQF6); type: functional;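 note: Luminescence-based dose-response confirmation of ultra-high-throughput screening hits, measuring inhibition of SENP7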
# T2 sequence (Q9BQF6 whole entry): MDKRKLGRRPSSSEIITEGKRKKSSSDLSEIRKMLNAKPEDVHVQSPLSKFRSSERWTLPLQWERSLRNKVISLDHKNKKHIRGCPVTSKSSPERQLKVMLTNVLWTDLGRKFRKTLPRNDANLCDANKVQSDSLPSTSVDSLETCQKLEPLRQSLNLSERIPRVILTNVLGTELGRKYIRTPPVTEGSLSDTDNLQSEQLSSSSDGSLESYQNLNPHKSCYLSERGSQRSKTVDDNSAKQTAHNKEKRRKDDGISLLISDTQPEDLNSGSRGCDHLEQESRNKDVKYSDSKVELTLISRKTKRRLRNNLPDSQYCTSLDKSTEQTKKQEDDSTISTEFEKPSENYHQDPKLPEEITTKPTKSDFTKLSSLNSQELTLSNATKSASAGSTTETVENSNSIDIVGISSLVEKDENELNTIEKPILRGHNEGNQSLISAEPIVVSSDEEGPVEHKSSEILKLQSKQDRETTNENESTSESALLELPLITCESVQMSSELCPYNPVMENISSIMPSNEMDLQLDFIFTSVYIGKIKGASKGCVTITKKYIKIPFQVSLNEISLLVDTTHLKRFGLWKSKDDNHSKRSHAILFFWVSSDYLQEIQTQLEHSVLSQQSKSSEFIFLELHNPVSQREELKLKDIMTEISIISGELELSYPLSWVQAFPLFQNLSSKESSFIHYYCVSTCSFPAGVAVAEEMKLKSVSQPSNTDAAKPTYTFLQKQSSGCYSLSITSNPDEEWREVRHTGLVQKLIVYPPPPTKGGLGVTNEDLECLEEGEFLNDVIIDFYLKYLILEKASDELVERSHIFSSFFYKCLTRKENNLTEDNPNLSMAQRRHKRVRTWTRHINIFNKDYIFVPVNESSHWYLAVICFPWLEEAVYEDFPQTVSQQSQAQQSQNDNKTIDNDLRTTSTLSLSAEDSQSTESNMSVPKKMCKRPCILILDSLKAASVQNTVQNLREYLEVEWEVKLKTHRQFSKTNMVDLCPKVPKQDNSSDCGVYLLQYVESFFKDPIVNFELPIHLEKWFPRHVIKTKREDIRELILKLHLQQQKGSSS
# [12] = IC50 of Artemis nuclease activity blockers – biochemical, fluorescence intensity, dose response (AID 720701); type: functional;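 note: Artemis endonuclease enzyme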
# [13] = molecular target: Serine/threonine-protein phosphatase (Candida dubliniensis (strain CD36 / CBS 7987 / NCPF 3949 / NRRLY-17841) (Yeast), UniProt B9W6M3); assay: blockers of CaCl2-induced CDRE-lacZ signaling – S. cerevisiae, luminescence, secondary, dose response (AID 2388); type: functional, cell-based;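 note: yeast reporter cells carrying a calcineurin-responsive lacZ construct stimulated with calcium chloride; luminescent beta-galactosidase reporter signal in whole cells rather than isolated phosphatase activity; potency for inhibition where a drop in reporter signal means calcineurin blockade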
# Sequence of Rho-associated protein kinase 1 (Q13464 whole entry): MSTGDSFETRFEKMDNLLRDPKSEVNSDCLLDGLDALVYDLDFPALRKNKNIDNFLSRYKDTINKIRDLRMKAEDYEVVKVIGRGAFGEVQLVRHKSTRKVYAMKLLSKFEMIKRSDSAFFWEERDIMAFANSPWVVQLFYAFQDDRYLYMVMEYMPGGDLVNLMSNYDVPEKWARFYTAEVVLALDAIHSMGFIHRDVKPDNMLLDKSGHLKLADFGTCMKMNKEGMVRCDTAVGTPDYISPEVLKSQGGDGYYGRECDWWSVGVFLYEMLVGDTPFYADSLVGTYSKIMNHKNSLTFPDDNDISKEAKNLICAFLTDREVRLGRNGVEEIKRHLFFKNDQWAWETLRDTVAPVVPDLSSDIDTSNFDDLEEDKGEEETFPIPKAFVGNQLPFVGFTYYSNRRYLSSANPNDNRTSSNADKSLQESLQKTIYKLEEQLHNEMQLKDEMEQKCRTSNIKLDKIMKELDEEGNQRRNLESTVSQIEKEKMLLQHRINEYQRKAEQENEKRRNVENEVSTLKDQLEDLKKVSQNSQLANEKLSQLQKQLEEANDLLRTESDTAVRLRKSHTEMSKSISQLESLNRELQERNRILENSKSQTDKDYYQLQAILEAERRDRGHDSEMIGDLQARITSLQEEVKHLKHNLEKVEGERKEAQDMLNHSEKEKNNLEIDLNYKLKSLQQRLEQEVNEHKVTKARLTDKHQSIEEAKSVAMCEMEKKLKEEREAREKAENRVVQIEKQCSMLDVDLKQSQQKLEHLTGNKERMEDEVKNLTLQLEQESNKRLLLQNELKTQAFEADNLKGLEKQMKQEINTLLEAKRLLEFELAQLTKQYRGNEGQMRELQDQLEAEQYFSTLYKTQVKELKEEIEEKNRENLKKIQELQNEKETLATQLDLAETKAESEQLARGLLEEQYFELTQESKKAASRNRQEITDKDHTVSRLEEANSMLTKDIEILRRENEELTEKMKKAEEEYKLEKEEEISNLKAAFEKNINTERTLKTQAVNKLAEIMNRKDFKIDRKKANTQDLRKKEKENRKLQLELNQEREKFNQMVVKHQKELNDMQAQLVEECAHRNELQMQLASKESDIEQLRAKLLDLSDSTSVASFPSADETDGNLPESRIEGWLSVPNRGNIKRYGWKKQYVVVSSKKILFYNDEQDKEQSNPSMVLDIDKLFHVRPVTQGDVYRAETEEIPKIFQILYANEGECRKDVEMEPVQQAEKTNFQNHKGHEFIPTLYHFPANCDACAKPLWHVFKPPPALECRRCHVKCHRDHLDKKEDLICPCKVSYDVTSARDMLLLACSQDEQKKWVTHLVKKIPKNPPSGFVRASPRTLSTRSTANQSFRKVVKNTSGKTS
# Sequence of Cyclin-dependent kinase 19 (Q9BWU1 whole entry): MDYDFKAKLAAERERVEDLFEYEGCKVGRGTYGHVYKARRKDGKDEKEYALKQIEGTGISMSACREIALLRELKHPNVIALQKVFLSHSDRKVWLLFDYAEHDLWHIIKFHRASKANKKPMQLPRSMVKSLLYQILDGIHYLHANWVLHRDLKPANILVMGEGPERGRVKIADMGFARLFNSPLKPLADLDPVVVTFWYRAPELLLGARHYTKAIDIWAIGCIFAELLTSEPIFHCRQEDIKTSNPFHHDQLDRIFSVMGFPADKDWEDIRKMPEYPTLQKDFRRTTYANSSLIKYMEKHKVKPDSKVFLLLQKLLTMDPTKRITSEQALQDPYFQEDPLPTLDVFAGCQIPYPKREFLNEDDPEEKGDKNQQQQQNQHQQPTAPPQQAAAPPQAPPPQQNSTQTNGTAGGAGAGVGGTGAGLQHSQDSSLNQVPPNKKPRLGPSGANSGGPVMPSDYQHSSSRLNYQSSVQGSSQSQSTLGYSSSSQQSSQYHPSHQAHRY
# Sequence of Homeodomain-interacting protein kinase 2 (Q9H2X6 whole entry): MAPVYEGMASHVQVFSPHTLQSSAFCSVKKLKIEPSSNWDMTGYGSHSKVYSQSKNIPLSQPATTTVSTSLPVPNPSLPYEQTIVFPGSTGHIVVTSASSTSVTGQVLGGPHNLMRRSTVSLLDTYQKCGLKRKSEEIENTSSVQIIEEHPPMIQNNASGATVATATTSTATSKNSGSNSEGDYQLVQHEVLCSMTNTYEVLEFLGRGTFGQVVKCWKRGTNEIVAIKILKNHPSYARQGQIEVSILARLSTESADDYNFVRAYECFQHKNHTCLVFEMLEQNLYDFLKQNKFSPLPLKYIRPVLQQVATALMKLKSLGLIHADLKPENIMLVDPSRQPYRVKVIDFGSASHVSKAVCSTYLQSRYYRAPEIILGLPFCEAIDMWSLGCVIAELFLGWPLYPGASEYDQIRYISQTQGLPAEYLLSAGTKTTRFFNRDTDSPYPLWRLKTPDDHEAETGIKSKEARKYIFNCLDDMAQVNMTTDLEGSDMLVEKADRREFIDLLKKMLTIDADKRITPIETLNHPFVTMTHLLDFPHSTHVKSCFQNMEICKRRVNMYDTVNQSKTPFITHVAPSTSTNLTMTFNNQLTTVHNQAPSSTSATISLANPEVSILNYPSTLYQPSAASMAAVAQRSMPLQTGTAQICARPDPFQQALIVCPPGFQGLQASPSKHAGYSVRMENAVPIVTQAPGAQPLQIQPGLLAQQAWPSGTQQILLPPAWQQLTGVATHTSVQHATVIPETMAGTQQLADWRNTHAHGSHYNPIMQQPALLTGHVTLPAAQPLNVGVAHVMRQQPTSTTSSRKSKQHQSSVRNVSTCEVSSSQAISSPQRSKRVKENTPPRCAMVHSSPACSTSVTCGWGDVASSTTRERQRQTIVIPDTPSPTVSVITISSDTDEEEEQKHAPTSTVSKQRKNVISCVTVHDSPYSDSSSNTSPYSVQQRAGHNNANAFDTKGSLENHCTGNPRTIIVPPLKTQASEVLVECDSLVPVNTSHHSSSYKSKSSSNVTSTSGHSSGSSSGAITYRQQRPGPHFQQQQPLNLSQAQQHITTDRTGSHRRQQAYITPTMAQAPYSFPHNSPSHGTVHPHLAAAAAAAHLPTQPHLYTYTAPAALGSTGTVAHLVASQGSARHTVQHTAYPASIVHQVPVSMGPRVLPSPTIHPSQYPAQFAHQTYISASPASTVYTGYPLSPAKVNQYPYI
# Sequence of Serine/threonine-protein kinase PLK1 (P53350 whole entry): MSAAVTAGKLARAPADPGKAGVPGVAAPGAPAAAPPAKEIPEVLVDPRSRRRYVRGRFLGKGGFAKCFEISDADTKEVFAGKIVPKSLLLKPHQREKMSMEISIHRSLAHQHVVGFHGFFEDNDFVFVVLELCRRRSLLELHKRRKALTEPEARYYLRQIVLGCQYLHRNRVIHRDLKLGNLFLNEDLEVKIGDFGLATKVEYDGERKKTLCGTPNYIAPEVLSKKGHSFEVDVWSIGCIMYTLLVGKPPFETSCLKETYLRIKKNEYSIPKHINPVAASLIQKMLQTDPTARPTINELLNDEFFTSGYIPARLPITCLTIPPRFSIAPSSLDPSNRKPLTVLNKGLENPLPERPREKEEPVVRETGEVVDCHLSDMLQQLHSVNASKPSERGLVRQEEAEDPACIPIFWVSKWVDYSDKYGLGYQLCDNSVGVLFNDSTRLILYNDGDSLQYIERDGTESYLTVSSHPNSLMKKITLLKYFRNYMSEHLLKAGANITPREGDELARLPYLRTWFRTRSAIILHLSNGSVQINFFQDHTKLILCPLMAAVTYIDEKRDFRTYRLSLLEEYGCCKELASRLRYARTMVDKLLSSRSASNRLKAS
# Sequence of DNA dC->dU-editing enzyme APOBEC-3A (P31941 whole entry): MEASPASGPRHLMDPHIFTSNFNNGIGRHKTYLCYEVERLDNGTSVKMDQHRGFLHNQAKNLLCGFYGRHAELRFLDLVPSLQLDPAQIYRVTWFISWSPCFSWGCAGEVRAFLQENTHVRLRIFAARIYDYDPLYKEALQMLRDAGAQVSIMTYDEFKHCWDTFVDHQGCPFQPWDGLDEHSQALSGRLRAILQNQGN
# Sequence of Tyrosine-protein kinase Lyn (P07948 whole entry): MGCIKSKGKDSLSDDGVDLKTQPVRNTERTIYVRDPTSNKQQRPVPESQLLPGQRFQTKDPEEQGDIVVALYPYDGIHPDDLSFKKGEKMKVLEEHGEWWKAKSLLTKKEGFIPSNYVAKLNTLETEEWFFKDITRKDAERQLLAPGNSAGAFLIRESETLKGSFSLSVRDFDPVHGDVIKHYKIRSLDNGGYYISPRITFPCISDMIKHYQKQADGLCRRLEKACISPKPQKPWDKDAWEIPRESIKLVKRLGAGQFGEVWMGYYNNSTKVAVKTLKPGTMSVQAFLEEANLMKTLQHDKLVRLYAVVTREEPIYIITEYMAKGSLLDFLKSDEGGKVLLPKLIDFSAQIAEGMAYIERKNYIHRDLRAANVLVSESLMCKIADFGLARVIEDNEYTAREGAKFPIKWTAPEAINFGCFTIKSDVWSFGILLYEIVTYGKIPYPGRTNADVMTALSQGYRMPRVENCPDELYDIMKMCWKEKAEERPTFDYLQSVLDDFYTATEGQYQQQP
compound,measurement,setting,value
Cc1cccc(NC(=O)Nc2ccc3c(c2)CCc2sc4ncnc(N)c4c2-3)c1,Ki,[1],0.158 µM (active)
same,Ki,[2],0.794 µM (active)
same,Ki,[3],> 100 µM (inactive)
same,Ki,[4],5.01 µM (active)
same,Ki,[5],> 7.94 µM (inactive)
same,Ki,[6],> 3.98 µM (inactive)
same,Ki,[7],> 3.16 µM (inactive)
same,Ki,[8],> 1.26 µM (inactive)
same,Ki,Focal adhesion kinase 1,0.631 µM (active)
same,Ki,[9],0.126 µM (active)
Cc1ccc(-n2sc3ccccc3c2=O)cc1,IC50,[10],> 100 µM (inactive)
N/C(=N\N=C/c1ccc(-c2ccc(O)c(C(=O)O)c2)o1)N[N+](=O)[O-],IC50,Aminopeptidase N,10.2 µM (active)
CC(=O)N(/N=C1\Sc2ccccc2C1=O)c1ccccc1C,IC50,[11],3.79 µM (active)
same,IC50,[12],7.4 µM (active)
CCCC(=O)NC(c1ccc(Cl)cc1)c1ccc2cccnc2c1O (stereo not given),EC50,[13],45.4 µM (active)
